In patent US10259781B2, “Imaging agents” (THE REGENTS OF THE UNIVERSITY OF MICHIGAN, priority 2012, dated 2019):
Entries after “also recorded” stand apart in the source; their conditions may differ.

Experiments:
[1] = In vitro incubation with monkey liver cytosol fraction and PAPS (sulfur conjugation); assay type: in vitro ADME
Procedure: The main radiometabolite formed is more polar than the parent compound, [^18F]4-MHPG. The metabolite has been identified as the sulfur conjugate of [^18F]4-MHPG based on in vitro incubations of the parent compound with a monkey liver cytosol fraction and the required cofactor 3′-phospho-adenosine-5′phosphosulfate (PAPS). After only 1 minute of in vitro incubation, approximately 70% of [^18F]4-MHPG was sulfur conjugated, and after 20 minutes of incubation, 100% was in the sulfur-conjugated form (FIG. 4B). Sulfur conjugation occurs at the meta-hydroxyl group (FIG. 4C). Without being bound by theory and without requiring an understanding of the mechanism to practice the technology, it is contemplated that rapid metabolism of [^18F]4F-MHPG is a reason for its low liver uptake. In comparison, the structurally similar carbon-11 compound, [^11C]guanyl-meta-octopamine (GMO), has a slower metabolic breakdown in monkey plasma, with a T1/2 for breakdown of approximately 13 minutes.

[2] = Human radiation absorbed dose estimates, OLINDA/EXM 1.0, from rat biodistribution
Procedure: During the development of embodiments of the technology provided herein, the biodistribution of [^18F]4F-MHPG into the organs of rats was assessed. In particular, four time points (Table 3) were collected and used to derive human radiation absorbed dose estimates using the OLINDA/EXM 1.0 software package (see, e.g., Stabin et al. (2005) “OLINDA/EXM; the second-generation personal computer software for internal dose assessment in nuclear medicine”, J Nucl Med. 46: 1023-7). […] These values were entered into the Dynamic Bladder model of OLINDA/EXM, assuming a 4.0-hour void interval. Organs with the highest absorbed dose estimates included the urinary bladder wall (0.666 rad/mCi), […] (0.221 rad/mCi), small intestine (0.201 rad/mCi), and the heart wall (0.201 rad/mCi). An ‘effective dose’ of 0.091 rem/mCi was estimated for [^18F]4F-MHPG. Under United States Federal Regulations governing research with a new radiopharmaceutical (21 CFR § 361.1), the maximum allowable radiation absorbed dose to an individual organ (other than the gonads) is 5 rad. Considering the maximum estimated absorbed dose (urinary bladder wall; 0.666 rad/mCi), initial PET studies in human subjects could use a maximum of 7.5 mCi of [^18F]4F-MHPG. This would correspond to an ‘effective dose’ of 0.68 rem.

adrenal glands = assay: Uptake into adrenal glands, microPET; assay type: in vivo, rhesus macaque monkey; conditions: DMI block of NET
Source text: To assess the ability of [^18F]4F-MHPG to serve an additional clinical role as a marker of adrenergic tumors such as neuroblastoma and pheochromocytoma, data were collected to examine the uptake of [^18F]4F-MHPG into the adrenal gland. In control studies, the adrenal glands took up sufficient [^18F]4F-MHPG to be visualized, especially on the right side of the transaxial images, which was better separated from the kidney than the contralateral adrenal gland. There was also significant uptake in the cortex of the kidney. The kinetics of [^18F]4F-MHPG in the adrenal gland are very similar to those seen in the heart. In the DMI block study above, the adrenal glands were scanned for 10 minutes following the 90 minute cardiac study.

[3] = tested on: cardiac sympathetic neurons; assay: Isolated working rat heart model: neuronal uptake and clearance kinetics
Procedure: The radiotracer was infused into the heart for 10 minutes to measure the tracer uptake rate into cardiac sympathetic neurons (Kup, shown in units of ml/min/g tissue wet). Then, the heart was infused with normal heart perfusate to measure the tracer clearance rate from the heart over 2 hours.
Experiments were conducted to test ^11C-phenoxyethylguanidine (PEG), e.g., to establish baseline values for the NET transport rate (Kup, expressed in units of mL perfusate/min/g wet) and the clearance rate from sympathetic neurons (T1/2, expressed in units of hours).

[4] = Metabolic breakdown in monkey plasma (reverse-phase HPLC of venous blood samples); assay type: in vivo, rhesus macaque monkey; conditions: rhesus monkeys
Procedure: In some of the microPET studies, venous blood samples (e.g., n=6) were drawn to assess the metabolic breakdown of [^18F]4F-MHPG in plasma (see Table 1). Plasma was processed for injection onto a reverse-phase HPLC system equipped with a radiation detector. The percentages of intact parent tracer and radiolabeled metabolites were determined as a function of time. In this system, [^18F]4-MHPG has a retention time Rt of approximately 11.2 minutes while the main polar radiometabolite formed has an Rt of approximately 7.9 minutes.

N=C(N)NCCc1ccc(F)c(O)c1 [[^18F]4F-MHPG] [4-[^18F]fluoro-meta-hydroxy-phenethylguanidine]
fraction sulfur conjugated ([1]; after 1 minute of in vitro incubation): approximately 70% | fraction in the sulfur-conjugated form ([1]; after 20 minutes of incubation): 100% | effective dose for a maximum of 7.5 mCi ([2]; initial PET studies in human subjects, 7.5 mCi): 0.68 rem | Effective dose ([2]; reference adult male model): 0.091 rem/mCi | Effective dose, Dose for 10 mCi ([2]; reference adult male model): 0.91 rem | Radiation absorbed dose estimate, Dose for 10 mCi, Adrenals ([2]; reference adult male model): 0.59 rad | Radiation absorbed dose estimate, Dose for 10 mCi, Brain ([2]; reference adult male model): 0.25 rad | Radiation absorbed dose estimate, Dose for 10 mCi, Breasts ([2]; reference adult male model): 0.26 rad | Radiation absorbed dose estimate, Dose for 10 mCi, Gallbladder wall ([2]; reference adult male model): 0.61 rad | Radiation absorbed dose estimate, Dose for 10 mCi, Heart wall ([2]; reference adult male model): 1.09 rad | Radiation absorbed dose estimate, Dose for 10 mCi, Kidneys ([2]; reference adult male model): 0.78 rad | Radiation absorbed dose estimate, Dose for 10 mCi, LLI wall ([2]; reference adult male model): 1.07 rad | Radiation absorbed dose estimate, Dose for 10 mCi, Liver ([2]; reference adult male model): 0.96 rad | Radiation absorbed dose estimate, Dose for 10 mCi, Lungs ([2]; reference adult male model): 0.35 rad | Radiation absorbed dose estimate, Dose for 10 mCi, Muscle ([2]; reference adult male model): 0.37 rad | Radiation absorbed dose estimate, Dose for 10 mCi, Osteogenic cells ([2]; reference adult male model): 0.49 rad | Radiation absorbed dose estimate, Dose for 10 mCi, Ovaries ([2]; reference adult male model): 0.88 rad | Radiation absorbed dose estimate, Dose for 10 mCi, Pancreas ([2]; reference adult male model): 0.63 rad | Radiation absorbed dose estimate, Dose for 10 mCi, Red marrow ([2]; reference adult male model): 0.37 rad | Radiation absorbed dose estimate, Dose for 10 mCi, Skin ([2]; reference adult male model): 0.26 rad | Radiation absorbed dose estimate, Dose for 10 mCi, Small intestine ([2]; reference adult male model): 2.01 rad | Radiation absorbed dose estimate, Dose for 10 mCi, Spleen ([2]; reference adult male model): 0.79 rad | Radiation absorbed dose estimate, Dose for 10 mCi, Stomach wall ([2]; reference adult male model): 0.48 rad | Radiation absorbed dose estimate, Dose for 10 mCi, Testes ([2]; reference adult male model): 0.41 rad | Radiation absorbed dose estimate, Dose for 10 mCi, Thymus ([2]; reference adult male model): 0.33 rad | Radiation absorbed dose estimate, Dose for 10 mCi, Thyroid ([2]; reference adult male model): 0.29 rad | Radiation absorbed dose estimate, Dose for 10 mCi, Total body ([2]; reference adult male model): 0.41 rad | Radiation absorbed dose estimate, Dose for 10 mCi, ULI wall ([2]; reference adult male model): 2.21 rad | Radiation absorbed dose estimate, Dose for 10 mCi, Urinary bladder wall ([2]; reference adult male model): 6.66 rad | Radiation absorbed dose estimate, Dose for 10 mCi, Uterus ([2]; reference adult male model): 1.03 rad | Radiation absorbed dose estimate, Total dose, Adrenals ([2]; reference adult male model): 0.059 rad/mCi | Radiation absorbed dose estimate, Total dose, Brain ([2]; reference adult male model): 0.025 rad/mCi | Radiation absorbed dose estimate, Total dose, Breasts ([2]; reference adult male model): 0.026 rad/mCi | Radiation absorbed dose estimate, Total dose, Gallbladder wall ([2]; reference adult male model): 0.061 rad/mCi | Radiation absorbed dose estimate, Total dose, Heart wall ([2]; reference adult male model): 0.109 rad/mCi | Radiation absorbed dose estimate, Total dose, Kidneys ([2]; reference adult male model): 0.078 rad/mCi | Radiation absorbed dose estimate, Total dose, LLI wall ([2]; reference adult male model): 0.107 rad/mCi | Radiation absorbed dose estimate, Total dose, Liver ([2]; reference adult male model): 0.096 rad/mCi | Radiation absorbed dose estimate, Total dose, Lungs ([2]; reference adult male model): 0.035 rad/mCi | Radiation absorbed dose estimate, Total dose, Muscle ([2]; reference adult male model): 0.037 rad/mCi | Radiation absorbed dose estimate, Total dose, Osteogenic cells ([2]; reference adult male model): 0.049 rad/mCi | Radiation absorbed dose estimate, Total dose, Ovaries ([2]; reference adult male model): 0.088 rad/mCi | Radiation absorbed dose estimate, Total dose, Pancreas ([2]; reference adult male model): 0.063 rad/mCi | Radiation absorbed dose estimate, Total dose, Red marrow ([2]; reference adult male model): 0.037 rad/mCi | Radiation absorbed dose estimate, Total dose, Skin ([2]; reference adult male model): 0.026 rad/mCi | Radiation absorbed dose estimate, Total dose, Small intestine ([2]; reference adult male model): 0.201 rad/mCi | Radiation absorbed dose estimate, Total dose, Spleen ([2]; reference adult male model): 0.079 rad/mCi | Radiation absorbed dose estimate, Total dose, Stomach wall ([2]; reference adult male model): 0.048 rad/mCi | Radiation absorbed dose estimate, Total dose, Testes ([2]; reference adult male model): 0.041 rad/mCi | Radiation absorbed dose estimate, Total dose, Thymus ([2]; reference adult male model): 0.033 rad/mCi | Radiation absorbed dose estimate, Total dose, Thyroid ([2]; reference adult male model): 0.029 rad/mCi | Radiation absorbed dose estimate, Total dose, Total body ([2]; reference adult male model): 0.041 rad/mCi | Radiation absorbed dose estimate, Total dose, ULI wall ([2]; reference adult male model): 0.221 rad/mCi | Radiation absorbed dose estimate, Total dose, Urinary bladder wall ([2]; reference adult male model): 0.666 rad/mCi | Radiation absorbed dose estimate, Total dose, Uterus ([2]; reference adult male model): 0.103 rad/mCi | uptake into the adrenal glands under DMI block (adrenal glands): No uptake; also recorded: completely absent | kinetics compared with [11C]4F-MHPG [3]: almost identical | metabolism in plasma [4]: rapidly metabolized
